We go through two molecules from patent publication US20170079281A1, “CITRUS-BASED ANTIMICROBIAL COMPOSITION” (priority 2015, published 2017).

Molecules are shown by their SMILES.

One data set relates to S. cerevisiae ISI107. In words: MIC microtiter plate assay in filtered apple juice. In kind it is cell-based, Saccharomyces cerevisiae. Particulars: filtered apple juice (pH 3.59), 25° C., aerobically.
For data set [1] the following is noted: has been reported; cited from earlier work.
In the next data set the test system is Escherichia coli EDL 933. The data set is described as follows: MIC by broth dilution method in 96-well microplates. Particulars: Mueller Hinton Broth, 24 h. It counts as cell-based. On the technique in general: In broth dilution the organism is exposed to a series of concentrations in liquid medium.
Data set [2] concerns Salmonella typhimurium SL1344. The description is as above. Particulars: Mueller Hinton Broth, 24 h. It counts as cell-based.
Data set [3] concerns Listeria monocytogenes HPB 2812. Described as above. In kind it is cell-based. The conditions noted are these: Mueller Hinton Broth, 24 h.
Data set [4] relates to Staphylococcus aureus ATCC 25923. The description is as above. Particulars: Mueller Hinton Broth, 24 h. In kind it is cell-based.
Another data set deals with Bacillus cereus L8PQ. Described as above. In kind it is cell-based. The conditions noted are these: Mueller Hinton Broth, 24 h.
Data set [5] concerns Aspergillus niger ATCC 1015. Described as above. In kind it is cell-based. The conditions noted are these: Mueller Hinton Broth, 24 h.
The subject of data set [6] is Xeromyces bisporus ATCC MY-36964. The data set is described as above. In kind it is cell-based. The conditions noted are these: Mueller Hinton Broth, 24 h.
Data set [7] deals with Zygosaccharomyces rouxii ATCC R 995. Described as above. It counts as cell-based. The conditions noted are these: Mueller Hinton Broth, 24 h.
Data set [8] relates to total aerobic microflora (TAM). In words: Accelerated shelf-life testing of strawberry fillings and puddings. The conditions noted are these: 0.2% by mass Composition A or 0.1% by mass sodium benzoate; 28° C., 70% RH, 35 days (Month 1 to Month 15). In kind it is cell-based. On the procedure:
(§1) The shelf-life of the strawberry fillings and strawberry flavor puddings, containing 0.2% by mass Composition A or 0.1% by mass sodium benzoate, […], from a procedure by Kilcast and Persis (2000) by determining the concentration of total aerobic microflora (TAM) and yeast/molds (YM). […]; Sheldon Manufacturing Inc., Cornelius, Oreg., USA), in order to simulate an accelerated maturity of the products. A storage time of 2 weeks in these conditions corresponds to 6 months in normal conditions (20° C., 45% RH). […] Samples were homogenized for 2 min at 260 rpm in 50 mL of sterile peptone water (0.1% w/v) with a Lab-Blender™ 400 stomacher (Laboratory Equipment, London, UK). From each homogenate, serial dilutions were prepared, plated onto surface of Plate Count Agar (PCA) (Difco, BD) for TAM enumeration or PDA for YM enumeration and incubated for 24-48 h at 37° C. (resp. 28° C.) before counting.

A further data set has as its system yeast/molds (YM). The description is as above. In kind it is cell-based. On the procedure:
as §1

On to `CCCCCCCCCCCC(=O)N[C@@H](CCCN=C(N)N)C(=O)OCC` [lauric arginate, ethyl lauroyl arginate], for which, in the data set on S. cerevisiae ISI107, the MIC entry is recorded as “about 156 ppm”. Also, the “Resistance to thermal processing” value in [1] is on record as “resistant to all types of thermal processing including boiling”.
Take `O=C([O-])c1ccccc1.[Na+]` [Sodium benzoate, sodium benzoate]: the MIC against Escherichia coli EDL 933 is 10 730 ppm; in data set [2], 5 185 ppm; in [3], 5 185 ppm; in data set [4], 5 185 ppm; against Bacillus cereus L8PQ, 5 185 ppm; in data set [5] it was 648 ppm. Also, the MIC in data set [6] amounted to 81 ppm; in [7], 162 ppm. For the same molecule, the “TAM concentration in strawberry fillings” value in data set [8] is given as “total inhibition”. Also, in the data set on yeast/molds (YM) (0.2% Composition A or 0.1% sodium benzoate, after 35 days accelerated storage, also no growth in control, data not shown), the “Yeast/Mold (Y/M) concentration in strawberry flavor puddings” value is “no growth”. Further, in the data set on yeast/molds (YM) (0.2% by mass Composition A or 0.1% by mass sodium benzoate, 28° C., 70% RH, 35 days (Month 1 to Month 15)), the “Yeast/Mold (Y/M) concentration in strawberry fillings” value was “total inhibition”.
